Experimental data as given in patent US9642354B2, “Method of freezing cells” (Cellulis, S.L., priority 2010, dated 2017).

Legend:
Smac cells = experiment: Cytotoxic test (MTT assay) on smooth muscle aortic cells (SMAC) thawed from two-layer frozen 96-well plate; format: cell-based, rat; conditions: 24 h treatment started 24 h post-thawing, 5-Fluorouracil 20, 40, 80, 100 μg/ml, Tamoxifen 0.02, 1.25, 2.5, 5 μM
Protocol: (§1) Balb3T3 (ATCC, LCC Standards) fibroblasts and smooth muscle aortic cells (SMAC, freshly isolated from Sprague Dawley rats, Harlan Laboratories) primary cells were cultured in complete culture medium consisting of endotoxin-free DMEM (Sigma-Aldrich) supplemented with 10% FCS, 100 μg/ml penicillin and 100 IU/ml streptomycin (Sigma-Aldrich). […] The resulting cells were allowed to grow for twelve days prior to cryopresentation. Both cell types were grown in flasks until they were 80% confluent and then harvested. Harvesting took place by incubating cells in 5 ml of PBS with 0.05% EDTA for 2 minutes, and final detachment was achieved by incubation in 0.1% trypsin and 0.05% EDTA for another 5 minutes. Cells were centrifuged at 400×G for 5 minutes. Then, a total of 4.8 ml of a solution at 4° C. containing 50,000 cells/50 μl of freezing 80% DMEM, 10% FCS, 10% DMSO (AppliChem) medium was prepared (cell density determined by haemocytometer), forming the so-called freezing solution. Besides, 100 μl of complete culture medium was disposed in each cell of a 96-well plate and frozen down to −80° C. Once frozen, the plate is recovered and 50 μl/well of the said freezing solution were added on top each well containing 100 μl of complete culture medium already frozen. […] Twenty four hours later a MTT assay was performed and cytotoxicity was calculated according to the absorbance values. […]

BALB3T3 cells = experiment: Cytotoxic test (MTT assay) on Balb3T3 fibroblasts thawed from two-layer frozen 96-well plate; format: cell-based; conditions: 24 h treatment started 24 h post-thawing, 5-Fluorouracil 20, 40, 80, 100 μg/ml, Tamoxifen 0.02, 1.25, 2.5, 5 μM
Protocol: as §1

| SMILES | cytotoxic response of Smac cells (Smac cells) | cytotoxic response of BALB3T3 cells (BALB3T3 cells) |
| --- | --- | --- |
| O=c1[nH]cc(F)c(=O)[nH]1 [5-Fluorouracil] | Concentration dependent cytotoxic response | Concentration dependent cytotoxic response |
| CC/C(=C(\c1ccccc1)c1ccc(OCCN(C)C)cc1)c1ccccc1 [Tamoxifen] | Concentration dependent cytotoxic response | Concentration dependent cytotoxic response |
